Data reported in PubChem BioAssay (NCI).
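Five compound concentrations were applied to cells in 96-well plates for 48 hours; endpoints were derived by simple linear interpolation of the resulting dose-response curve. The concentration for full growth arrest is given as TGI.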

Experiments:
Test in all cases: NCI-60 cell line screen, 48 h
786-0 renal = test system: 786-0 renal
A498 renal = test system: A498 renal
A549 NSCLC = test system: A549 NSCLC
ACHN renal = test system: ACHN renal
CAKI-1 renal = test system: CAKI-1 renal
CCRF-CEM leukemia = test system: CCRF-CEM leukemia
COLO 205 colon = test system: COLO 205 colon
DLD-1 colon = test system: DLD-1 colon
DMS 114 small cell lung = test system: DMS 114 small cell lung
DMS 273 small cell lung = test system: DMS 273 small cell lung
EKVX NSCLC = test system: EKVX NSCLC
HCC-2998 colon = test system: HCC-2998 colon
HCT-116 colon = test system: HCT-116 colon
HCT-15 colon = test system: HCT-15 colon
HOP-18 NSCLC = test system: HOP-18 NSCLC
HOP-92 NSCLC = test system: HOP-92 NSCLC
HT29 colon = test system: HT29 colon
IGROV1 ovarian = test system: IGROV1 ovarian
K-562 leukemia = test system: K-562 leukemia
KM12 colon = test system: KM12 colon
LOX IMVI melanoma = test system: LOX IMVI melanoma
LXFL 529 NSCLC = test system: LXFL 529 NSCLC
M14 melanoma = test system: M14 melanoma
M19-MEL melanoma = test system: M19-MEL melanoma
MALME-3M melanoma = test system: MALME-3M melanoma
MOLT-4 leukemia = test system: MOLT-4 leukemia
NCI-H226 lung = test system: NCI-H226 lung
NCI-H23 lung = test system: NCI-H23 lung
NCI-H460 lung = test system: NCI-H460 lung
NCI-H522 lung = test system: NCI-H522 lung
OVCAR-3 ovarian = test system: OVCAR-3 ovarian
OVCAR-8 ovarian = test system: OVCAR-8 ovarian
RPMI-8226 leukemia = test system: RPMI-8226 leukemia
RXF 393 renal = test system: RXF 393 renal
RXF-631 renal = test system: RXF-631 renal
SF-295 CNS = test system: SF-295 CNS
SF-539 CNS = test system: SF-539 CNS
SK-MEL-28 melanoma = test system: SK-MEL-28 melanoma
SK-MEL-5 melanoma = test system: SK-MEL-5 melanoma
SK-OV-3 ovarian = test system: SK-OV-3 ovarian
SN12C renal = test system: SN12C renal
SNB-75 CNS = test system: SNB-75 CNS
SNB-78 CNS = test system: SNB-78 CNS
SW-620 colon = test system: SW-620 colon
TK-10 renal = test system: TK-10 renal
U251 CNS = test system: U251 CNS
UACC-257 melanoma = test system: UACC-257 melanoma
UACC-62 melanoma = test system: UACC-62 melanoma
UO-31 renal = test system: UO-31 renal
HL-60(TB) leukemia = test system: HL-60(TB) leukemia
HOP-62 NSCLC = test system: HOP-62 NSCLC
KM20L2 colon = test system: KM20L2 colon
OVCAR-4 ovarian = test system: OVCAR-4 ovarian
OVCAR-5 ovarian = test system: OVCAR-5 ovarian
SF-268 CNS = test system: SF-268 CNS
SK-MEL-2 melanoma = test system: SK-MEL-2 melanoma
SNB-19 CNS = test system: SNB-19 CNS
SR leukemia = test system: SR leukemia
XF 498 CNS = test system: XF 498 CNS

`COC12OCCN(CCO)C1=CC(=O)C1(C)N=NC(C)C12` (stereo unspecified) was tested, and the TGI (786-0 renal) was > 100 µM, the TGI (A498 renal) was > 100 µM and the TGI (A549 NSCLC) was > 100 µM. The TGI (ACHN renal) was > 100 µM, the TGI (CAKI-1 renal) was > 100 µM and the TGI (CCRF-CEM leukemia) was > 100 µM. The TGI (COLO 205 colon) was > 100 µM, the TGI (DLD-1 colon) was > 100 µM and the TGI (DMS 114 small cell lung) was > 100 µM. The TGI (DMS 273 small cell lung) was > 100 µM, the TGI (EKVX NSCLC) was > 100 µM and the TGI (HCC-2998 colon) was > 100 µM. For the same compound, the TGI (HCT-116 colon) was > 100 µM, the TGI (HCT-15 colon) was > 100 µM and the TGI (HOP-18 NSCLC) was > 100 µM. The TGI (HOP-92 NSCLC) was > 100 µM, the TGI (HT29 colon) was > 100 µM and the TGI (IGROV1 ovarian) was > 100 µM. The TGI (K-562 leukemia) was > 100 µM, the TGI (KM12 colon) was > 100 µM and the TGI (LOX IMVI melanoma) was > 100 µM. For the same compound, the TGI (LXFL 529 NSCLC) was > 100 µM, the TGI (M14 melanoma) was > 100 µM and the TGI (M19-MEL melanoma) was > 100 µM. The TGI (MALME-3M melanoma) was > 100 µM, the TGI (MOLT-4 leukemia) was > 100 µM and the TGI (NCI-H226 lung) was > 100 µM. For the same compound, the TGI (NCI-H23 lung) was > 100 µM, the TGI (NCI-H460 lung) was > 100 µM and the TGI (NCI-H522 lung) was > 100 µM. The TGI (OVCAR-3 ovarian) was > 100 µM, the TGI (OVCAR-8 ovarian) was > 100 µM and the TGI (RPMI-8226 leukemia) was > 100 µM. For the same compound, the TGI (RXF 393 renal) was > 100 µM, the TGI (RXF-631 renal) was > 100 µM and the TGI (SF-295 CNS) was > 100 µM. The TGI (SF-539 CNS) was > 100 µM, the TGI (SK-MEL-28 melanoma) was > 100 µM and the TGI (SK-MEL-5 melanoma) was > 100 µM. For the same compound, the TGI (SK-OV-3 ovarian) was > 100 µM, the TGI (SN12C renal) was > 100 µM and the TGI (SNB-75 CNS) was > 100 µM. For the same compound, the TGI (SNB-78 CNS) was > 100 µM, the TGI (SW-620 colon) was > 100 µM and the TGI (TK-10 renal) was > 100 µM. The TGI (U251 CNS) was > 100 µM, the TGI (UACC-257 melanoma) was > 100 µM and the TGI (UACC-62 melanoma) was > 100 µM. For the same compound, the TGI (UO-31 renal) was > 100 µM.

With `O=C(NCc1ccccc1)c1cc2ccc(O)c(O)c2cn1` the TGI (786-0 renal) was 33.1 µM, the TGI (A498 renal) was > 100 µM and the TGI (A549 NSCLC) was > 100 µM. The TGI (ACHN renal) was 29.4 µM, the TGI (CAKI-1 renal) was 33.6 µM and the TGI (CCRF-CEM leukemia) was > 100 µM. The TGI (COLO 205 colon) was > 100 µM, the TGI (DLD-1 colon) was 37.8 µM and the TGI (DMS 114 small cell lung) was 26.8 µM. For the same compound, the TGI (DMS 273 small cell lung) was 32.3 µM, the TGI (EKVX NSCLC) was > 100 µM and the TGI (HCC-2998 colon) was > 100 µM. For the same compound, the TGI (HCT-116 colon) was 32.1 µM, the TGI (HCT-15 colon) was > 100 µM and the TGI (HL-60(TB) leukemia) was > 100 µM. The TGI (HOP-18 NSCLC) was 44.5 µM, the TGI (HOP-62 NSCLC) was 47.9 µM and the TGI (HOP-92 NSCLC) was 33.3 µM. The TGI (HT29 colon) was > 100 µM, the TGI (IGROV1 ovarian) was 44.5 µM and the TGI (K-562 leukemia) was > 100 µM. For the same compound, the TGI (KM12 colon) was > 100 µM, the TGI (KM20L2 colon) was > 100 µM and the TGI (LOX IMVI melanoma) was 16.2 µM. For the same compound, the TGI (LXFL 529 NSCLC) was 30.6 µM, the TGI (M14 melanoma) was 19.3 µM and the TGI (M19-MEL melanoma) was 3.23 µM. The TGI (MALME-3M melanoma) was 30.4 µM, the TGI (NCI-H226 lung) was > 100 µM and the TGI (NCI-H23 lung) was 25.9 µM. It also gave a TGI (NCI-H460 lung) of 39.1 µM, a TGI (NCI-H522 lung) of 30.9 µM and a TGI (OVCAR-3 ovarian) of 41.6 µM. For the same compound, the TGI (OVCAR-4 ovarian) was 30.3 µM, the TGI (OVCAR-5 ovarian) was 58.3 µM and the TGI (OVCAR-8 ovarian) was 23.9 µM. The TGI (RPMI-8226 leukemia) was > 100 µM, the TGI (RXF 393 renal) was 30.5 µM and the TGI (SF-268 CNS) was 29.7 µM. For the same compound, the TGI (SF-295 CNS) was 31.5 µM, the TGI (SF-539 CNS) was 32.6 µM and the TGI (SK-MEL-2 melanoma) was 25.4 µM. For the same compound, the TGI (SK-MEL-28 melanoma) was 30.3 µM, the TGI (SK-MEL-5 melanoma) was 23.3 µM and the TGI (SK-OV-3 ovarian) was > 100 µM. The TGI (SN12C renal) was 31.7 µM, the TGI (SNB-19 CNS) was > 100 µM and the TGI (SNB-75 CNS) was 32.9 µM. For the same compound, the TGI (SNB-78 CNS) was 40.6 µM, the TGI (SR leukemia) was > 100 µM and the TGI (SW-620 colon) was 37.4 µM. For the same compound, the TGI (TK-10 renal) was > 100 µM, the TGI (U251 CNS) was 52.8 µM and the TGI (UACC-257 melanoma) was 29.1 µM. The TGI (UACC-62 melanoma) was 33.5 µM, the TGI (UO-31 renal) was 36.5 µM and the TGI (XF 498 CNS) was 31.7 µM.
